Measured values published in patent US11780845B2 (Relay Therapeutics, Inc., priority 2019, dated 2023).
pIC50: −log10 of the molar value.

What was measured:
SNU-16 = assay: Cell SNU-16 assay; type: cell-based; settings: Homo sapiens, SNU-16, SNU-16 cells
FGFR2 = FGFR2 (Homo sapiens (Human), UniProt P21802); assay: Biochemical FGFR2 Caliper assay
Chain of FGFR2 (P21802 22-821): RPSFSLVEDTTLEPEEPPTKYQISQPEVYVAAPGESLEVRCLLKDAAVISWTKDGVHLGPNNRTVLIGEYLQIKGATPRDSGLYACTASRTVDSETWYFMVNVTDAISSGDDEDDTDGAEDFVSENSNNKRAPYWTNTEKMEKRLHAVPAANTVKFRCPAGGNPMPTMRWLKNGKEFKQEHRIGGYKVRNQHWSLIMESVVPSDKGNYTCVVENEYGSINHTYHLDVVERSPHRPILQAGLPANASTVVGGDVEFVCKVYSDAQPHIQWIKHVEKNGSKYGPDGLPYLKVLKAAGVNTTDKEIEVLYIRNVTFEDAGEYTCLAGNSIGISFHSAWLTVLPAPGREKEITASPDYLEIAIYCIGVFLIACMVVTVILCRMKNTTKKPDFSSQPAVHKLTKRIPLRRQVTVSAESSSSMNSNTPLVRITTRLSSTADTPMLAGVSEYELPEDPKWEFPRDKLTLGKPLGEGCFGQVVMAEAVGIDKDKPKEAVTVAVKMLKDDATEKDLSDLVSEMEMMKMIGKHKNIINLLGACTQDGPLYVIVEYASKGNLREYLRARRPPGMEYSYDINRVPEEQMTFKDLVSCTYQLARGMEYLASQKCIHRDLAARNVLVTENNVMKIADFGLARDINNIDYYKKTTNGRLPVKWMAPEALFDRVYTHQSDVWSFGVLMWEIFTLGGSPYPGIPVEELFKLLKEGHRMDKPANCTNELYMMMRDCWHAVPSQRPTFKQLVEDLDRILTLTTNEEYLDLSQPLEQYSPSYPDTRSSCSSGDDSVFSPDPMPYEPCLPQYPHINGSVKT

| pIC50 (SNU-16) | pIC50 (FGFR2) | Compound |
| --- | --- | --- |
| ≥ 7.00 | > 7.00 | C#Cc1ncc(-c2c(-c3ccc(Oc4nccc(C)n4)c(F)c3)c3c(C)ncnc3n2C)c(C)n1 [Example 1170] |
| ≥ 7.00 | > 7.00 | C#Cc1nc(C)c(-c2c(-c3ccc(Oc4nccc(C)n4)cc3)c3c(N)ncnc3n2C)cc1F [Example 1171] |
| ≥ 7.00 | > 7.00 | C=C(C)c1nc(-c2ccc(-c3c(-c4ccccc4)c4c(N)ncnc4n3C)cc2)no1 [Example 1172] |
| ≥ 7.00 | 6.60 to 7.00 | C#Cc1ccc(-c2c(-c3ccc(Oc4nccc(C)n4)cc3)c3c(N)ncnc3n2C)cc1F [Example 1175] |
| ≥ 7.00 | > 7.00 | C#Cc1c(F)cc(-c2c(-c3ccc(Oc4nccc(C)n4)cc3)c3c(N)ncnc3n2C)cc1F [Example 1177] |
| ≥ 7.00 | > 7.00 | C#Cc1ncc(-c2c(C3=CC[C@@H](C(=O)N4CCCC4)CC3)c3c(N)ncnc3n2C)c(C)n1 [Example 1180] |
| ≥ 7.00 | > 7.00 | C#Cc1cnc(-c2c(-c3ccc(Oc4nccc(C)n4)cc3)c3c(N)ncnc3n2C)cn1 [Example 1181] |
| ≥ 7.00 | > 7.00 | C#Cc1ncc(-c2c(-c3ccc(C(=O)N4CCC[C@@H]4C#C)cc3)c3c(N)ncnc3n2C)c(C)n1 [Example 1182] |
| ≥ 7.00 | > 7.00 | C#Cc1ccc(-c2c(-c3ccc(Oc4nccc(C)n4)c(F)c3)c3cncnc3n2C)c(C)n1 [Example 1183] |
| 4.00 to 6.00 | 4.00 to 6.00 | C#Cc1ncc(-c2c(-c3ccc(C(=O)N4CCC[C@H]4C#C)cc3)c3c(N)ncnc3n2C)c(C)n1 [Example 1184] |
| ≥ 7.00 | > 7.00 | C#Cc1cc(C)c(-c2c(-c3ccc(C(=O)N4CCC[C@H]4C#C)cc3)c3c(N)ncnc3n2C)cn1 [Example 1185] |
| ≥ 7.00 | > 7.00 | C=C1CCN(c2ccc(-c3c(-c4ccc(Oc5nccc(C)n5)c(F)c4)c4c(C)ncnc4n3C)c(C)c2)C1=O [Example 1186] |
| ≥ 7.00 | > 7.00 | C#Cc1cc(C)c(-c2c(-c3ccc(C(=O)N4CCC[C@@H]4C#C)cc3)c3c(N)ncnc3n2C)cn1 [Example 1187] |
| ≥ 7.00 | > 7.00 | C#Cc1ncc(-c2c(-c3ccc(Oc4nccc(C)n4)cc3)c3c(N)ncnc3n2C)cc1C#N [Example 1188] |
| ≥ 7.00 | > 7.00 | C=C(C)C(=O)Nc1ccc(-c2c(C3=CCN(Cc4ccccc4)CC3)c3c(N)ncnc3n2C)cc1 [Example 1189] |
| 6.00 to 6.60 | 6.00 to 6.60 | C#Cc1cc(-c2c(-c3ccccc3)c3c(N)ncnc3n2C)ccn1 [Example 1193] |
| 4.00 to 6.00 | 4.00 to 6.00 | C=Cc1ccc(-c2c(-c3ccccc3)c3c(N)ncnc3n2C)cn1 [Example 1194] |
| ≥ 7.00 | > 7.00 | C#Cc1ccc(-c2c(-c3ccc(Oc4nccc(C)n4)cc3F)c3c(N)ncnc3n2C)c(C)n1 [Example 1197] |
| ≥ 7.00 | > 7.00 | C#Cc1cc(F)c(-c2c(-c3ccc(Oc4nccc(C)n4)c(F)c3)c3c(N)ncnc3n2C)cn1 [Example 1198] |
| 4.00 to 6.00 | 4.00 to 6.00 | C#Cc1ccc(-c2c(-c3ccc(Oc4nccc(C)n4)c(F)c3)c3c(N)ncnc3n2C)c(F)n1 [Example 1200] |
| 6.00 to 6.60 | 4.00 to 6.00 | C#Cc1nc2cc(-c3c(-c4ccc(Oc5nccc(C)n5)c(F)c4)c4c(N)ncnc4n3C)ccc2[nH]1 [Example 1202] |

| pIC50 (SNU-16) | pIC50 (FGFR2) | Compound |
| --- | --- | --- |
| ≥ 7.00 | > 7.00 | C#Cc1cc(C)c(-c2c(-c3ccc(Oc4cccc(C)n4)c(F)c3)c3c(N)ncnc3n2C)cn1 [Example 1203] |
| 6.00 to 6.60 | 6.00 to 6.60 | Cc1ccnc(Oc2ccc(-c3c(-c4ccc(C)nc4C)n(C)c4ncnc(N)c34)cc2F)n1 [Example 1206] |
| ≥ 7.00 | > 7.00 | C#Cc1cc(C)c(-c2c(-c3ccc(Oc4nccc(C)n4)c(F)c3)c3c(N)ncnc3n2C(C)C)cn1 [Example 1213] |
| ≥ 7.00 | > 7.00 | C#Cc1ccc(-c2c(-c3ccc(Oc4nccc(C)n4)c(F)c3)c3c(N)ncnc3n2C(C)C)c(C)n1 [Example 1214] |
| ≥ 7.00 | > 7.00 | C#Cc1cc(C)c(-c2c(-c3ccc(Oc4nccc(C)n4)c(F)c3)c3c(N)ncnc3n2C)c(C)n1 [Example 1215] |
| ≥ 7.00 | > 7.00 | C#Cc1cc(CC)c(-c2c(-c3ccc(Oc4nccc(C)n4)c(F)c3)c3c(N)ncnc3n2C)cn1 [Example 1217] |
| ≥ 7.00 | > 7.00 | C#Cc1cc(CO)c(-c2c(-c3ccc(Oc4nccc(C)n4)c(F)c3)c3c(N)ncnc3n2C)cn1 [Example 1228] |
| ≥ 7.00 | > 7.00 | COCC#Cc1ncc(-c2c(-c3ccc(Oc4nccc(C)n4)cc3)c3c(N)ncnc3n2C)c(C)n1 [Example 1232] |
| ≥ 7.00 | > 7.00 | C#Cc1ncc(-c2c(-c3ccc(Oc4nccc(C)n4)c(F)c3)c3c(N)ncnc3n2C)c2ccccc12 [Example 1233] |
| ≥ 7.00 | > 7.00 | C#Cc1cc(C)c(-c2c(-c3ccc(Oc4ncccn4)c(F)c3)c3c(N)ncnc3n2C)cn1 [Example 1234] |
| 4.00 to 6.00 | 4.00 to 6.00 | C#Cc1cc(-c2c(-c3ccc(Oc4nccc(C)n4)cc3)c3c(N)ncnc3n2C)n(C)n1 [Example 1236] |
| ≥ 7.00 | 6.00 to 6.60 | C#Cc1cc(-c2c(-c3ccc(Oc4nccc(C)n4)c(F)c3)c3c(N)ncnc3n2C)ccn1 [Example 1237] |
| 4.00 to 6.00 | 6.60 to 7.00 | C=C1CCc2ccc(-c3c(-c4ccc(Oc5nccc(C)n5)cc4)c4c(N)ncnc4n3C)cc2C1=O [Example 1242] |
| ≥ 7.00 | > 7.00 | C#Cc1ccc(-c2c(-c3ccc(Oc4nccc(C)n4)c(F)c3)c3c(N)ncnc3n2C)c(CC)n1 [Example 1243] |
| ≥ 7.00 | > 7.00 | C#Cc1cc(C)c(-c2c(-c3ccc(Oc4nccc(C)n4)c(F)c3)c3c(N)ncnc3n2CCO)cn1 [Example 1245] |
| ≥ 7.00 | > 7.00 | C#Cc1cc(C)c(-c2c(-c3ccc(Oc4ccn(C)n4)c(F)c3)c3c(N)ncnc3n2C)cn1 [Example 1246] |
| 6.60 to 7.00 | 6.00 to 6.60 | C#Cc1cc(C)c(-c2c(C3=CC[C@H](C(=O)N4CCC[C@H]4C)CC3)c3c(N)ncnc3n2C)cn1 [Example 1249] |
| ≥ 7.00 | > 7.00 | C#Cc1cc(Cl)c(-c2c(-c3ccc(Oc4nccc(C)n4)c(F)c3)c3c(N)ncnc3n2C)cn1 [Example 1250] |
| ≥ 7.00 | > 7.00 | C#Cc1cc(C)c(-c2c(C3=CC[C@H](C(=O)N4CCC[C@H]4C#N)CC3)c3c(N)ncnc3n2C)cn1 [Example 1251] |
| ≥ 7.00 | > 7.00 | C#Cc1cc(C)c(-c2c(C3=CC[C@@H](C(=O)N4CCC[C@H]4C#N)CC3)c3c(N)ncnc3n2C)cn1 [Example 1252] |
| ≥ 7.00 | > 7.00 | C#Cc1cc(C(F)F)c(-c2c(-c3ccc(Oc4nccc(C)n4)c(F)c3)c3c(N)ncnc3n2C)cn1 [Example 1253] |

| pIC50 (SNU-16) | pIC50 (FGFR2) | Compound |
| --- | --- | --- |
| ≥ 7.00 | > 7.00 | C#Cc1ncc(-c2c(-c3ccc(Oc4nccc(C)n4)c(F)c3)c3c(C)ncnc3n2C)c(C)c1F [Example 1255] |
| 6.00 to 6.60 | 6.00 to 6.60 | C#Cc1cc(C)c(-c2c(C3=CC[C@H](C(=O)N4CCC[C@@H]4C)CC3)c3c(N)ncnc3n2C)cn1 [Example 1257] |
| ≥ 7.00 | > 7.00 | C#Cc1ncc(-c2c(-c3ccc(C(=O)NCC(F)(F)F)c(OC)c3)c3c(N)ncnc3n2C)c(C)c1F [Example 1260] |
| ≥ 7.00 | > 7.00 | C#Cc1ncc(-c2c(-c3ccc(C(=O)NCC(C)C)c(F)c3)c3c(N)ncnc3n2C)c(C)c1F [Example 1261] |
| ≥ 7.00 | > 7.00 | C#Cc1cc(C)c(-c2c(-c3ccc(Oc4nccc(C)n4)c(C#N)c3)c3c(N)ncnc3n2C)cn1 [Example 1262] |
| ≥ 7.00 | > 7.00 | C#Cc1cc(C)c(-c2c(-c3ccc(Oc4nccc(C)n4)c(Cl)c3)c3c(N)ncnc3n2C)cn1 [Example 1263] |
| ≥ 7.00 | > 7.00 | C#Cc1ncc(-c2c(-c3ccc(Oc4nccc(C)n4)c(Cl)c3)c3c(N)ncnc3n2C)c(C)c1F [Example 1264] |
| 6.60 to 7.00 | > 7.00 | COC(=O)/C=C/CNc1ccc(-c2c(-c3ccc(Oc4nccc(C)n4)c(F)c3)c3c(N)ncnc3n2C)cc1 [Example 1265] |
| 6.00 to 6.60 | 4.00 to 6.00 | Cc1ccnc(Oc2ccc(-c3c(-c4ccc(NCC#N)cc4)n(C)c4ncnc(N)c34)cc2F)n1 [Example 1266] |
| 4.00 to 6.00 | 4.00 to 6.00 | C=C(C)C(=O)Nc1ccc(-c2c(-c3ccc4c(c3)NCCN4C)c3c(N)ncnc3n2C)cc1 [Example 1267] |
| 4.00 to 6.00 | 4.00 to 6.00 | C=C(C)C(=O)Nc1ccc(-c2c(C3=COCCC3)c3c(N)ncnc3n2C)cc1 [Example 1268] |
| 4.00 to 6.00 | 4.00 to 6.00 | C=C(C)C(=O)Nc1ccc(-c2c(C3=CCCCO3)c3c(N)ncnc3n2C)cc1 [Example 1269] |
| 6.00 to 6.60 | 6.00 to 6.60 | C=C(C)C(=O)Nc1ccc(-c2c(-c3cc4cccnc4s3)c3c(N)ncnc3n2C)cc1 [Example 1270] |
| 4.00 to 6.00 | 4.00 to 6.00 | C=C(C)C(=O)Nc1ccc(-c2c(-c3ccc(-c4cccnc4)s3)c3c(N)ncnc3n2C)cc1 [Example 1271] |
| 4.00 to 6.00 | 4.00 to 6.00 | C=C(C)C(=O)Nc1ccc(-c2c(-c3ccc4ccncc4c3)c3c(N)ncnc3n2C)cc1 [Example 1272] |
| 4.00 to 6.00 | 4.00 to 6.00 | C=C(C)C(=O)Nc1ccc(-c2c(-c3coc4ccccc34)c3c(N)ncnc3n2C)cc1 [Example 1273] |
| 4.00 to 6.00 | 4.00 to 6.00 | C=C(C)C(=O)Nc1ccc(-c2c(-c3ccc4nc(C)oc4c3)c3c(N)ncnc3n2C)cc1 [Example 1274] |
| 6.00 to 6.60 | 6.00 to 6.60 | C=C(C)C(=O)Nc1ccc(-c2c(-c3cnn(C4CCCC4)c3)c3c(N)ncnc3n2C)cc1 [Example 1275] |
| 4.00 to 6.00 | 4.00 to 6.00 | C=C(C)C(=O)Nc1ccc(-c2c(-c3cnn(-c4ccccc4)c3C)c3c(N)ncnc3n2C)cc1 [Example 1276] |
| 4.00 to 6.00 | 6.00 to 6.60 | C=C(C)C(=O)Nc1ccc(-c2c(-c3ccc4cccnc4c3)c3c(N)ncnc3n2C)cc1 [Example 1277] |
